How the values were obtained:
Type in all cases: biochemical
[1] = target: Kit (Homo sapiens, UniProt P10721); assay: Kinase activity assay, Kit; settings: Table 1j; read-out: activity toward kinase Kit, IC50
From the text: (§1) Assays for the activity of kinases, including, but not limited to, Fms, Kit, B-Raf, B-Raf V600E, c-Raf-1, and TrkA are known in the art, for example as described in US Patent Publication Number US20070032519 and U.S. patent application Ser. No. 11/473,347 (see also, PCT publication WO2007002433), the disclosures of which are hereby incorporated by reference with respect to such assays.

[2] = target: Fms (Homo sapiens, UniProt P07333); assay: Kinase activity assay, Fms; settings: Table 1h; read-out: activity toward kinase Fms, IC50
From the text: as §1

[3] = target: C-Raf (Homo sapiens, UniProt P04049); assay: Kinase activity assay, C-Raf; settings: Table 1d; read-out: activity toward kinase C-Raf, IC50
From the text: as §1

[4] = target: Kdr (Homo sapiens, UniProt P35968); assay: Kinase activity assay, Kdr; settings: Table 1i; read-out: activity toward kinase Kdr, IC50
From the text: as §1

[5] = target: B-Raf V600E (Homo sapiens, UniProt P15056, V600E); assay: Kinase activity assay, B-Raf V600E; settings: Table 1c; read-out: activity toward kinase B-Raf V600E, IC50
From the text: as §1

[6] = target: TrkA (Homo sapiens, UniProt P04629); assay: Kinase activity assay, TrkA; settings: Table 1m; read-out: activity toward kinase TrkA, IC50
From the text: as §1

Sequence of Kdr (P35968 20-1356): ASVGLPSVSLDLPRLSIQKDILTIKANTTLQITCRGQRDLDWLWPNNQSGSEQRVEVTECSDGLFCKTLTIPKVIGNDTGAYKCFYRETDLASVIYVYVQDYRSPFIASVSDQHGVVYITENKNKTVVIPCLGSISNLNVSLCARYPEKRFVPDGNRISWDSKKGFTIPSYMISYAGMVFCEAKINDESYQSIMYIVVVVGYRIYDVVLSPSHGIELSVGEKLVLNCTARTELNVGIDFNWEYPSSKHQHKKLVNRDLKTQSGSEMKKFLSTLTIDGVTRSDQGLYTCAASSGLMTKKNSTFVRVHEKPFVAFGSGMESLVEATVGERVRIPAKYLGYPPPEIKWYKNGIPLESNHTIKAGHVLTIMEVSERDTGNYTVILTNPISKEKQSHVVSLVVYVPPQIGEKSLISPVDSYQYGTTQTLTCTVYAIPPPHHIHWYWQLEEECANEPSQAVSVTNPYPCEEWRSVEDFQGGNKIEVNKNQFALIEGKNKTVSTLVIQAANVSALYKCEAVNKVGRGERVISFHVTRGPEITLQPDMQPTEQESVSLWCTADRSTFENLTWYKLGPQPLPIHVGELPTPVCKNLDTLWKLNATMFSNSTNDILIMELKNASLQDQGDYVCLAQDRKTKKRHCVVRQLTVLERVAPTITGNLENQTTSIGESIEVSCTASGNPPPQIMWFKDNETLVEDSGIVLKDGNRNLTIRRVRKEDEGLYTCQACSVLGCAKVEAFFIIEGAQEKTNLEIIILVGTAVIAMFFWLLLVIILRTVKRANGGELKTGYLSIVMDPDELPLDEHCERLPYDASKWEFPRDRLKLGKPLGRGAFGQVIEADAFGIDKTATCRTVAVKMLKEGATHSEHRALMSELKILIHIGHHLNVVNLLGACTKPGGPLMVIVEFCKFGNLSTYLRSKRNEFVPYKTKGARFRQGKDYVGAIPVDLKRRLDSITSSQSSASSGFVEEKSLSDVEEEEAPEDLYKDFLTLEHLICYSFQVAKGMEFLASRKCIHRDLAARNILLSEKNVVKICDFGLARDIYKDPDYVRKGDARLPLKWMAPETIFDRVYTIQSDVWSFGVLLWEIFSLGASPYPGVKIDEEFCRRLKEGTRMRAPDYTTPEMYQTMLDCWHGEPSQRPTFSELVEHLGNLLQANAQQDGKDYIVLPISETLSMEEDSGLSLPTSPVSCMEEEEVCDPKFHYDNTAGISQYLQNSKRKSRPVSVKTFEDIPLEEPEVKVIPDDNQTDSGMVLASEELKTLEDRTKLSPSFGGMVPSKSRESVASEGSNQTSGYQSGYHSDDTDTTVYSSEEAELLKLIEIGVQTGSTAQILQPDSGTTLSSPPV
Sequence of Fms (P07333 20-972): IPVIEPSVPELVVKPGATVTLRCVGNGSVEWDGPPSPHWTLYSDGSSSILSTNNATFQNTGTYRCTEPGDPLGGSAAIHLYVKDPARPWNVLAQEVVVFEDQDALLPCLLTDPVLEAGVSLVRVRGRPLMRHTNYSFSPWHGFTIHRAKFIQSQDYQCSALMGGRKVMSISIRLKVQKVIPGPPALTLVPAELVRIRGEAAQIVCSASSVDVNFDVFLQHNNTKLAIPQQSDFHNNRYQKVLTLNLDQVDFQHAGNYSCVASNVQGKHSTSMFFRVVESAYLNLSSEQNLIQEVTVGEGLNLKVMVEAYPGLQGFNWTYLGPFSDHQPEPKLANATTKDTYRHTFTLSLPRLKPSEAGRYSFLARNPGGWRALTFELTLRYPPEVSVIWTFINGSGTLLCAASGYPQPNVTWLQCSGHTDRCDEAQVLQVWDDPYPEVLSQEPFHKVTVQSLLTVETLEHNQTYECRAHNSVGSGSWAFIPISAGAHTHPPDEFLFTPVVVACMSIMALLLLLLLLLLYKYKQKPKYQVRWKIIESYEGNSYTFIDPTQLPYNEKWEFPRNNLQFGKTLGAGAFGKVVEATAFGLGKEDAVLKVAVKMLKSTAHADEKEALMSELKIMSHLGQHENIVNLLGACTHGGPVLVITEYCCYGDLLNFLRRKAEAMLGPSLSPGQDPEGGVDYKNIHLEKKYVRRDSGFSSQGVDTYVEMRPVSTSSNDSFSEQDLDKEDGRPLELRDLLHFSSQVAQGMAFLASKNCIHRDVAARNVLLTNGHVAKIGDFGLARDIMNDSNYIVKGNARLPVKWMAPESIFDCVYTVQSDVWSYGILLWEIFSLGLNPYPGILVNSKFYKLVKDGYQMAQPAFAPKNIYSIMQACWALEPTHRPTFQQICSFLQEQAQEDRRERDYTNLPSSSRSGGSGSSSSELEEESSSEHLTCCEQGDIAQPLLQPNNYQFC
Sequence of C-Raf (P04049 whole entry): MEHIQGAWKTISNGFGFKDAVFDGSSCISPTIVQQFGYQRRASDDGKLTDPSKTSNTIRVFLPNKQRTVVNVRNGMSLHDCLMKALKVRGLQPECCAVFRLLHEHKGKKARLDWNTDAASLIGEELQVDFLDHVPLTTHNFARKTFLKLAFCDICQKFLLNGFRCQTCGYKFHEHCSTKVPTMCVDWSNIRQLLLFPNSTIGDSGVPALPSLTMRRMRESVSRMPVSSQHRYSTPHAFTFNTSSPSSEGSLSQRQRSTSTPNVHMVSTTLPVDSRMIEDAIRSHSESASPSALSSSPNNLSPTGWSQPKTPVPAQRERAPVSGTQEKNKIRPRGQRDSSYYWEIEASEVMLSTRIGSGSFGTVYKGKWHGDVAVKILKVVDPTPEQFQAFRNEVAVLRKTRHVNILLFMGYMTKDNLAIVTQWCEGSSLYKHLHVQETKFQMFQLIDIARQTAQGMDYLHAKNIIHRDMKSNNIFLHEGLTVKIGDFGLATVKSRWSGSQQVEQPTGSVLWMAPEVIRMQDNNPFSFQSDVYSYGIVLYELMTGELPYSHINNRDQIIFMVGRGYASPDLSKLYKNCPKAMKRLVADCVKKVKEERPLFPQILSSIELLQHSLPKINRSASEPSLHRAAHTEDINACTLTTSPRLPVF
Sequence of TrkA (P04629 33-796): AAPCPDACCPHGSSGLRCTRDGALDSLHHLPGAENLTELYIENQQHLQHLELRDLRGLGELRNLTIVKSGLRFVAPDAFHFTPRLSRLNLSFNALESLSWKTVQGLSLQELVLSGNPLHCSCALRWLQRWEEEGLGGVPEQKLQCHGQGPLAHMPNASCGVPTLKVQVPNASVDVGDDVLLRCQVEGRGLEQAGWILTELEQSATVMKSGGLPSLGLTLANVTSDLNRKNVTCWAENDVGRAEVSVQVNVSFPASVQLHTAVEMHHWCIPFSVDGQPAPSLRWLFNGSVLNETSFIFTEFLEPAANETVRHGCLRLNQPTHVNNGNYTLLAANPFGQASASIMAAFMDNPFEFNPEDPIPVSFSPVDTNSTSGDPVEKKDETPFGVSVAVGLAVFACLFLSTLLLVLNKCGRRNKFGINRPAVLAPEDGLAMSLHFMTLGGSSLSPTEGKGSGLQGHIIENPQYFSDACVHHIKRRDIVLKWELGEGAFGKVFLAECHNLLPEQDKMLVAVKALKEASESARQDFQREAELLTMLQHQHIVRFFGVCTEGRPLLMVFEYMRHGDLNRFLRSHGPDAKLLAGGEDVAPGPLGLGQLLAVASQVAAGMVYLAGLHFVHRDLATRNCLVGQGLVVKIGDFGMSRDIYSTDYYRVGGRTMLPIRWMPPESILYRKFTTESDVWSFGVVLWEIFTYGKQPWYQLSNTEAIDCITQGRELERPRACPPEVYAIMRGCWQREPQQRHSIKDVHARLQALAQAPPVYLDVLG
Sequence of B-Raf V600E (P15056 whole entry V600E): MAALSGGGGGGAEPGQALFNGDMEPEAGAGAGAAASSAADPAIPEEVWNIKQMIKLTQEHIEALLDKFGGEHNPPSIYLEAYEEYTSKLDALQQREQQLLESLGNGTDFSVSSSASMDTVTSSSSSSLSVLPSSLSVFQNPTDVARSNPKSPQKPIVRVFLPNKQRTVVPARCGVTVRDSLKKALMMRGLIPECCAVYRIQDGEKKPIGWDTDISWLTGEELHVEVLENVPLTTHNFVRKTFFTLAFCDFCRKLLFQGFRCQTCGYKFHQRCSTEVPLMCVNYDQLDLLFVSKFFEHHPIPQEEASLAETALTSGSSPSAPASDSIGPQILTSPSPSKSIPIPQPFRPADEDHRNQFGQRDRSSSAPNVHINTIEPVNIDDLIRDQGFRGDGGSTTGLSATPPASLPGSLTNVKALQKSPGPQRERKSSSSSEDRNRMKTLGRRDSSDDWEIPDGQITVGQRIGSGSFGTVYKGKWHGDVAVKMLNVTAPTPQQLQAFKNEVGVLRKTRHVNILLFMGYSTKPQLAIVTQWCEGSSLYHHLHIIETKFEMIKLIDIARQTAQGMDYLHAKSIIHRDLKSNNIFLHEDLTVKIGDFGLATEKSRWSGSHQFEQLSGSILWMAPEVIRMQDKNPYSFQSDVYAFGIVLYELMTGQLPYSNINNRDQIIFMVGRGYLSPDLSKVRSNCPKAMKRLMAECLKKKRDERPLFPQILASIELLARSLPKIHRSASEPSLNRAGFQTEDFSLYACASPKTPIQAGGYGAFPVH

Row | IC50 [1] [µM] | IC50 [2] [µM] | IC50 [3] [µM] | IC50 [4] [µM] | IC50 [5] [µM] | IC50 [6] [µM] | SMILES
1 | ≤ 10 | ≤ 10 | ≤ 10 | ≤ 10 | ≤ 10 |  | FC(F)(F)c1ccc(CNc2ccc(Cc3c[nH]c4ncncc34)cn2)cn1 [P-0004, [5-(7H-Pyrrolo[2,3-d]pyrimidin-5-ylmethyl)-pyridin-2-yl]-(6-trifluoromethyl-pyridin-3-ylmethyl)-amine]
2 | ≤ 10 | ≤ 10 |  | ≤ 10 |  | ≤ 10 | COc1ncc(CNc2ncc(Cc3c[nH]c4ncncc34)cn2)cc1F [P-0024, (5-Fluoro-6-methoxy-pyridin-3-ylmethyl)-[5-(7H-pyrrolo[2,3-d]pyrimidin-5-ylmethyl)-pyrimidin-2-yl]-amine]
3 |  | ≤ 10 | ≤ 10 | ≤ 10 | ≤ 10 |  | Fc1nc(NCc2ccc(N3CCOCC3)nc2)ccc1Cc1c[nH]c2ncncc12 [P-0039, [6-Fluoro-5-(7H-pyrrolo[2,3-d]pyrimidin-5-ylmethyl)-pyridin-2-yl]-(6-morpholin-4-yl-pyridin-3-ylmethyl)-amine]
4 | ≤ 10 | ≤ 10 | ≤ 10 | ≤ 10 | ≤ 10 |  | Fc1ccc(CNc2ccc(Cc3c[nH]c4ncncc34)c(F)n2)nc1 [P-0041, (5-Fluoro-pyridin-2-ylmethyl)-[6-fluoro-5-(7H-pyrrolo[2,3-d]pyrimidin-5-ylmethyl)-pyridin-2-yl]-amine]
5 |  | ≤ 10 | ≤ 10 | ≤ 10 | ≤ 10 |  | Fc1nc(NCc2cncc(Cl)c2)ccc1Cc1c[nH]c2ncncc12 [P-0044, (5-Chloro-pyridin-3-ylmethyl)-[6-fluoro-5-(7H-pyrrolo[2,3-d]pyrimidin-5-ylmethyl)-pyridin-2-yl]-amine]
6 | ≤ 10 | ≤ 10 | ≤ 10 | ≤ 10 | ≤ 10 | ≤ 10 | Fc1nc(NCc2cccnc2OCC(F)(F)F)ccc1Cc1c[nH]c2ncncc12 [P-0051, [6-Fluoro-5-(7H-pyrrolo[2,3-d]pyrimidin-5-ylmethyl)-pyridin-2-yl]-[2-(2,2,2-trifluoro-ethoxy)-pyridin-3-ylmethyl]-amine]
7 | ≤ 10 | ≤ 10 |  | ≤ 10 |  | ≤ 10 | Fc1nc(NCc2cc(C(F)(F)F)cc(C(F)(F)F)c2)ccc1Cc1c[nH]c2ncncc12 [P-0054, (3,5-Bis-trifluoromethyl-benzyl)-[6-fluoro-5-(7H-pyrrolo[2,3-d]pyrimidin-5-ylmethyl)-pyridin-2-yl]-amine]
8 | ≤ 10 | ≤ 10 | ≤ 10 | ≤ 10 |  | ≤ 10 | CC(C)Oc1ncccc1CNc1ccc(Cc2c[nH]c3ncncc23)c(F)n1 [P-0057, [6-Fluoro-5-(7H-pyrrolo[2,3-d]pyrimidin-5-ylmethyl)-pyridin-2-yl]-(2-isopropoxy-pyridin-3-ylmethyl)-amine]
9 | ≤ 10 | ≤ 10 |  | ≤ 10 |  | ≤ 10 | CN(C)c1ccccc1CNc1ccc(Cc2c[nH]c3ncncc23)c(F)n1 [P-0061, (2-Dimethylamino-benzyl)-[6-fluoro-5-(7H-pyrrolo[2,3-d]pyrimidin-5-ylmethyl)-pyridin-2-yl]-amine]
10 | ≤ 10 | ≤ 10 |  | ≤ 10 | ≤ 10 | ≤ 10 | Cc1cc(C)cc(CNc2ccc(Cc3c[nH]c4ncncc34)c(F)n2)c1 [P-0063, (3,5-Dimethyl-benzyl)-[6-fluoro-5-(7H-pyrrolo[2,3-d]pyrimidin-5-ylmethyl)-pyridin-2-yl]-amine]
11 | ≤ 10 | ≤ 10 |  | ≤ 10 |  | ≤ 10 | Cc1cc(F)cc(CNc2ccc(Cc3c[nH]c4ncncc34)c(F)n2)c1 [P-0064, (3-Fluoro-5-methyl-benzyl)-[6-fluoro-5-(7H-pyrrolo[2,3-d]pyrimidin-5-ylmethyl)-pyridin-2-yl]-amine]
12 | ≤ 10 | ≤ 10 |  | ≤ 10 | ≤ 10 | ≤ 10 | Fc1cc(Cl)cc(CNc2ccc(Cc3c[nH]c4ncncc34)c(F)n2)c1 [P-0067, (3-Chloro-5-fluoro-benzyl)-[6-fluoro-5-(7H-pyrrolo[2,3-d]pyrimidin-5-ylmethyl)-pyridin-2-yl]-amine]
13 | ≤ 10 | ≤ 10 |  | ≤ 10 |  | ≤ 10 | CCOc1ncccc1CNc1ccc(Cc2c[nH]c3ncncc23)c(F)n1 [P-0069, (2-Ethoxy-pyridin-3-ylmethyl)-[6-fluoro-5-(7H-pyrrolo[2,3-d]pyrimidin-5-ylmethyl)-pyridin-2-yl]-amine]
14 | ≤ 10 | ≤ 10 |  | ≤ 10 |  | ≤ 10 | COc1cc(CNc2ccc(Cc3c[nH]c4ncncc34)c(F)n2)cc(C(F)(F)F)c1 [P-0082, [6-Fluoro-5-(7H-pyrrolo[2,3-d]pyrimidin-5-ylmethyl)-pyridin-2-yl]-(3-methoxy-5-trifluoromethyl-benzyl)-amine]
15 | ≤ 10 | ≤ 10 |  | ≤ 10 | ≤ 10 | ≤ 10 | COc1ncc(CNc2ccc(Cc3c[nH]c4ncnc(OC)c34)c(F)n2)cc1F [P-0091, (5-Fluoro-6-methoxy-pyridin-3-ylmethyl)-[6-fluoro-5-(4-methoxy-7H-pyrrolo[2,3-d]pyrimidin-5-ylmethyl)-pyridin-2-yl]-amine]
16 | ≤ 10 | ≤ 10 | ≤ 10 | ≤ 10 |  |  | COc1ncc(F)cc1CNc1ncc(Cc2c[nH]c3ncnc(OC)c23)cn1 [P-0093, (5-Fluoro-2-methoxy-pyridin-3-ylmethyl)-[5-(4-methoxy-7H-pyrrolo[2,3-d]pyrimidin-5-ylmethyl)-pyrimidin-2-yl]-amine]
17 | ≤ 10 | ≤ 10 |  | ≤ 10 |  | ≤ 10 | COc1ncc(F)cc1CNc1ccc(Cc2c[nH]c3ncnc(OC)c23)c(F)n1 [P-0094, (5-Fluoro-2-methoxy-pyridin-3-ylmethyl)-[6-fluoro-5-(4-methoxy-7H-pyrrolo[2,3-d]pyrimidin-5-ylmethyl)-pyridin-2-yl]-amine]

Reference: patent US8158636B2, “Compounds and methods for kinase modulation, and indications therefor” (Plexxikon Inc., priority 2008, dated 2012)
